Measured values as given in article PMC6069808, “Biochemical and structural features of diverse bacterial glucuronoyl esterases facilitating recalcitrant biomass conversion” (Biotechnology for Biofuels, 2018).

Tests used:
Experiment in all cases: uronate dehydrogenase-coupled assay (K-URONIC), NADH formation
OtCE15D = test system: T1, OtCE15D; type: biochemical, Opitutus terrae; settings: pH 7.5, 25 °C, 50 mM sodium phosphate, ≤10% DMSO
T1 construct: recombinant in E. coli Rosetta2(DE3), N-terminal His6 tag and TEV site (modified pET-28a)

OtCE15C = test system: T2, OtCE15C; type: biochemical, Opitutus terrae; settings: pH 7.5, 25 °C, 50 mM sodium phosphate, ≤10% DMSO
T2 construct: recombinant in E. coli BL21(DE3), N-terminal His6 tag and TEV site (modified pET-28a)

SuCE15A = test system: T3, SuCE15A; type: biochemical, Candidatus Solibacter usitatus; settings: pH 7.5, 25 °C, 50 mM sodium phosphate, ≤10% DMSO
T3 construct: recombinant in E. coli BL21(DE3), N-terminal His6 tag and TEV site (modified pET-28a)

OtCE15B = test system: T4, OtCE15B; type: biochemical, Opitutus terrae; settings: pH 7.5, 25 °C, 50 mM sodium phosphate, ≤10% DMSO
T4 construct: recombinant in E. coli BL21(DE3), N-terminal His6 tag and TEV site (modified pET-28a); Tyr in place of the conserved Arg next to catalytic Ser
From the text: uronate dehydrogenase-coupled assay (K-URONIC), NADH formation on OtCE15B

SlCE15B = molecular target: T5, SlCE15B (Spirosoma linguale, UniProt D2QTM2); type: biochemical; settings: pH 6.5, 25 °C, 50 mM sodium phosphate, ≤10% DMSO; range covers four enzymes
T5 construct: gene Slin_6195; recombinant in E. coli with tig coexpression (pTf16), N-terminal His6 tag and TEV site (modified pET-28a)
T5 sequence (D2QTM2 entry or part of it): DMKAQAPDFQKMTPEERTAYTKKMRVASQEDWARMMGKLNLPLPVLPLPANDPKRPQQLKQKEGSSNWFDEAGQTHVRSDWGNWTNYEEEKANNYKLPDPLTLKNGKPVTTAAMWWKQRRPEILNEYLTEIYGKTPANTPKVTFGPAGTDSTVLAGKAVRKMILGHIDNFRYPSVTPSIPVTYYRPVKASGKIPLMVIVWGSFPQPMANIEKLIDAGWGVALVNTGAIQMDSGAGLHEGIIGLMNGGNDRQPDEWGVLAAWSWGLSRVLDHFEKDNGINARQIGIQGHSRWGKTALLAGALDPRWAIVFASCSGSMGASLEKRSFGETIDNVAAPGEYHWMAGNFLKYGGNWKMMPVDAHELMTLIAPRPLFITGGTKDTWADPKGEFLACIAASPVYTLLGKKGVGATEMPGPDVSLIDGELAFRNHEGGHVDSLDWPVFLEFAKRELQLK

Row | SMILES | Km (OtCE15D) | Km (OtCE15C) | Km (SuCE15A) | Km (OtCE15B) | Km (OtCE15D; range covers four enzymes) | Km (OtCE15C; range covers four enzymes) | Km (SlCE15B) | Km (SuCE15A; range covers four enzymes)
1 | C=CCOC(=O)[C@H]1OC(O)[C@H](O)[C@@H](O)[C@@H]1O (some centres unmarked) [AllylGlcA] | 2080 ± 90 µM | 2210 ± 120 µM | 1240 ± 170 µM | – | – | – | – | –
2 | O=C(OCc1ccccc1)[C@H]1OC(O)[C@H](O)[C@@H](O)[C@@H]1O (some centres unmarked) [BnzGlcA] | – | – | – | 7940 ± 870 µM | 400 to 600 µM | 400 to 600 µM | 400 to 600 µM | 400 to 600 µM
3 | COC(=O)[C@H]1OC(O)[C@H](O)[C@@H](O)[C@@H]1O (some centres unmarked) [MeGlcA] | 12300 ± 710 µM | 4010 ± 55 µM | 4310 ± 400 µM | – | – | – | – | –
